Paper PMC8693998 (Journal of natural products, 2021)
Entries after “also recorded” stand apart in the source; their conditions may differ.

What was measured:
human μ-opioid receptor = human μ-opioid receptor (Homo sapiens, UniProt P35372); format: binding
[1] = system: human μ-opioid receptor (MOR); assay: Human μ-opioid receptor binding affinity quoted from the literature; conditions: fold lower affinity than found in the present study
[2] = system: human μ-opioid receptor (MOR); conditions: cited from earlier work
[3] = molecular target: human μ-opioid receptor (MOR); conditions: read-out: μ-opioid, Ki ± SEM; cited from earlier work
[4] = system: hot plate latency in catheterized rats; assay: Rat hot plate antinociception assay; format: in vivo, Sprague–Dawley rats

human μ-opioid receptor, sequence (P35372 whole entry): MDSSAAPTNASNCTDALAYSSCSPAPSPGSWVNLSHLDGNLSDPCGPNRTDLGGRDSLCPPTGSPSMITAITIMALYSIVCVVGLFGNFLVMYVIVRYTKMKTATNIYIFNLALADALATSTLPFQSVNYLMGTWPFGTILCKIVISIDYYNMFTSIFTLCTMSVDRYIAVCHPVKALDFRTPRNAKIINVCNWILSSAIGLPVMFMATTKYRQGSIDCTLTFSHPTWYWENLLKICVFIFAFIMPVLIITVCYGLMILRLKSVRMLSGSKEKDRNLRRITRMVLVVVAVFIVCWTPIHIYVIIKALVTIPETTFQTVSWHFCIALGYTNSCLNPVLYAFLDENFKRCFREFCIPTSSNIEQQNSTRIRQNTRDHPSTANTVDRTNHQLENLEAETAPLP

CC[C@@H]1CN2CC[C@]3(C(=O)Nc4cccc(OC)c43)[C@@H]2C[C@@H]1/C(=C\OC)C(=O)OC [mitragynine oxindole B (4), mitragynine oxindole B]
Loss of hMOR affinity relative to corynoxine B (2) (human μ-opioid receptor): 16 fold

CC[C@@H]1CN2CC[C@]3(C(=O)Nc4ccccc43)[C@@H]2C[C@@H]1/C(=C\OC)C(=O)OC [corynoxine B (2), corynoxine B]
Loss of hMOR affinity relative to corynoxine (1) (human μ-opioid receptor; human μ-opioid receptor, […]): about 6 times | μ-opioid affinity in a recent study relative to the present study [1]: approximately 15 fold

CC[C@@H]1CN2CCc3c([nH]c4cccc(OC)c34)[C@@H]2C[C@@H]1/C(=C\OC)C(=O)OC [mitragynine (6), mitragynine]
Type of activity at the human μ-opioid receptor [2]: partial agonists

CC[C@@H]1CN2CCc3c([nH]c4cccc(OC)c34)[C@H]2C[C@@H]1/C(=C\OC)C(=O)OC [speciociliatine (9), speciociliatine]
Type of activity at the human μ-opioid receptor [2]: partial agonists

CC[C@@H]1CN2CC[C@@]3(O)C(=Nc4cccc(OC)c43)[C@@H]2C[C@@H]1/C(=C\OC)C(=O)OC [7-hydroxymitragynine (11), 7-hydroxymitragynine, reference compound]
Ki [3]: 7.2 nM | Type of activity at the human μ-opioid receptor [2]: partial agonists

CC[C@@H]1CN2CC[C@@]3(C(=O)Nc4ccccc43)[C@@H]2C[C@@H]1/C(=C\OC)C(=O)OC [corynoxine (1), corynoxine]
Reversal of antinociception by naltrexone ([4]; rat hot plate, 0.1 mg/kg (i.v.) naltrexone after cumulative doses, 0.1 mg/kg): fully reversed; also recorded: antagonized by naltrexone | Potency relative to morphine in hot plate assay ([4]; rats, nociceptive hot plate assay, fold more potent than morphine): 1.8 fold
